{
  "source": "paper PMC5004176",
  "about": "“The antifungal plant defensin AtPDF2.3 from Arabidopsis thaliana blocks potassium channels” (Scientific Reports, 2016)",
  "key": {"[1]": {"system": "Kv1.3", "test": "Two-electrode voltage-clamp on Kv1.3 expressed in X. laevis oocytes", "details": "3 μM, n ≥ 3", "experimental": "(§1) For the expression of the voltage-gated potassium channels (rKv1.1, rKv1.2, hKv1.3, rKv1.4, rKv1.5, rKv1.6, Shaker IR, hKv3.1, rKv4.3, and hERG) in Xenopus laevis oocytes, the linearized plasmids were transcribed using the T7 or SP6 mMESSAGE-mMACHINE transcription kit (Ambion). The harvesting of stage V–VI oocytes from an anaesthetized female X. laevis frog was previously described[59]. Oocytes were injected with 50 nL of cRNA at a concentration of 1 ng/nL using a micro-injector (Drummond Scientific, USA). The oocytes were incubated in a solution containing (in mM): NaCl, 96; KCl, 2; CaCl2, 1.8; MgCl2, 2 and HEPES, 5 (pH 7.4), supplemented with 50 mg/L gentamycin sulfate.\n(§2) Two-electrode voltage-clamp recordings were performed at room temperature (18–22 °C) using a Geneclamp 500 amplifier (Molecular Devices, USA) controlled by a pClamp data acquisition system (Axon Instruments, USA). Whole cell currents from oocytes were recorded 1–4 days after injection. Bath solution composition was ND96 (in mM): NaCl, 96; KCl, 2; CaCl2, 1.8; MgCl2, 2 and HEPES, 5 (pH 7.4) or HK (in mM): NaCl, 2; KCl, 96; CaCl2, 1.8; MgCl2, 2 and HEPES, 5 (pH 7.4). Voltage and current electrodes were filled with 3 M KCl. Resistances of both electrodes were kept between 0.7 and 1.5 MΩ. […] GV curves were calculated from IV relationships as follows: gK = IK/(Em−EK) with EK = (RT/zF)ln[K #0]o/[K #0]i. […]"}, "[2]": {"system": "Fusarium oxysporum", "test": "Fungal growth inhibitory assay", "assay_type": "cell-based", "details": "half strength PDB, 10^4 spores/mL, 48 hours, determined microscopically, n ≥ 3; read-out: IC50 (growth inhibition)"}, "[3]": {"system": "Saccharomyces cerevisiae BY4741 ∆nha1", "test": "Yeast growth inhibitory assay", "assay_type": "cell-based", "details": "BY4741 ∆nha1, MM medium, 24 hours, OD490nm, mean ± SEM, n ≥ 3; read-out: IC50 (growth inhibition)"}, "[4]": {"system": "Saccharomyces cerevisiae BY4741 ∆trk1", "test": "Yeast growth inhibitory assay", "assay_type": "cell-based", "details": "BY4741 ∆trk1, MM medium, 24 hours, OD490nm, mean ± SEM, n ≥ 3; read-out: IC50 (growth inhibition)"}, "[5]": {"system": "Saccharomyces cerevisiae BY4741 ∆hal5", "test": "Yeast growth inhibitory assay", "assay_type": "cell-based", "details": "BY4741 ∆hal5, MM medium, 24 hours, OD490nm, mean ± SEM, n ≥ 3; read-out: IC50 (growth inhibition)"}, "[6]": {"system": "Saccharomyces cerevisiae BY4741 ∆qdr2", "test": "Yeast growth inhibitory assay", "assay_type": "cell-based", "details": "BY4741 ∆qdr2, MM medium, 24 hours, OD490nm, mean ± SEM, n ≥ 3; read-out: IC50 (growth inhibition)"}, "[7]": {"system": "Saccharomyces cerevisiae BY4741 ∆arl1", "test": "Yeast growth inhibitory assay", "assay_type": "cell-based", "details": "BY4741 ∆arl1, MM medium, 24 hours, OD490nm, mean ± SEM, n ≥ 3; read-out: IC50 (growth inhibition)"}, "[8]": {"system": "Botrytis cinerea B05.10", "test": "Fungal growth inhibitory assay", "assay_type": "cell-based", "details": "half strength PDB, 10^4 spores/mL, 48 hours, determined microscopically, n ≥ 3; read-out: IC50 (growth inhibition)"}, "[9]": {"system": "Nav1.4", "test": "Two-electrode voltage-clamp on Nav1.4 expressed in X. laevis oocytes", "assay_type": "cell-based", "details": "5 μM, n ≥ 4"}, "[10]": {"system": "Verticillium dahliae", "test": "Fungal growth inhibitory assay", "assay_type": "cell-based", "details": "half strength PDB, 10^4 spores/mL, 48 hours, determined microscopically, n ≥ 3; read-out: IC50 (growth inhibition)"}, "[11]": {"system": "Saccharomyces cerevisiae BY4741 ∆sat4", "test": "Yeast growth inhibitory assay", "assay_type": "cell-based", "details": "BY4741 ∆sat4, MM medium, 24 hours, OD490nm, mean ± SEM, n ≥ 3; read-out: IC50 (growth inhibition)"}, "[12]": {"system": "Nav1.2", "test": "Two-electrode voltage-clamp on Nav1.2 expressed in X. laevis oocytes", "assay_type": "cell-based", "details": "5 μM, n ≥ 4"}, "[13]": {"system": "Kv1.4", "test": "Two-electrode voltage-clamp on Kv1.4 expressed in X. laevis oocytes", "details": "3 μM, n ≥ 3", "experimental": "as §1, §2"}, "[14]": {"system": "Kv1.1", "test": "Two-electrode voltage-clamp on Kv1.1 expressed in X. laevis oocytes", "details": "3 μM, n ≥ 3", "experimental": "as §1, §2"}, "[15]": {"system": "Kv4.2", "test": "Two-electrode voltage-clamp on Kv4.2 expressed in X. laevis oocytes", "details": "3 μM, n ≥ 3", "experimental": "as §1, §2"}, "[16]": {"system": "Saccharomyces cerevisiae BY4743 ∆frq1", "test": "Yeast growth inhibitory assay", "assay_type": "cell-based", "details": "BY4743 ∆frq1, MM medium, 24 hours, OD490nm, mean ± SEM, n ≥ 3; read-out: IC50 (growth inhibition)"}, "[17]": {"system": "Saccharomyces cerevisiae BY4743 WT", "test": "Yeast growth inhibitory assay", "assay_type": "cell-based", "details": "MM medium, 24 hours, OD490nm, mean ± SEM, n ≥ 3, read-out: IC50 (growth inhibition)"}, "[18]": {"system": "Saccharomyces cerevisiae BY4741 ∆trk2", "test": "Yeast growth inhibitory assay", "assay_type": "cell-based", "details": "BY4741 ∆trk2, MM medium, 24 hours, OD490nm, mean ± SEM, n ≥ 3; read-out: IC50 (growth inhibition)"}, "[19]": {"system": "Shaker IR", "test": "Two-electrode voltage-clamp on Shaker IR expressed in X. laevis oocytes", "details": "3 μM, n ≥ 3", "experimental": "as §1, §2"}, "[20]": {"system": "Fusarium culmorum", "test": "Fungal growth inhibitory assay", "assay_type": "cell-based", "details": "half strength PDB, 10^4 spores/mL, 48 hours, determined microscopically, n ≥ 3; read-out: IC50 (growth inhibition)"}, "[21]": {"system": "Saccharomyces cerevisiae BY4741 ∆kkq8", "test": "Yeast growth inhibitory assay", "assay_type": "cell-based", "details": "BY4741 ∆kkq8, MM medium, 24 hours, OD490nm, mean ± SEM, n ≥ 3; read-out: IC50 (growth inhibition)"}, "[22]": {"system": "Botrytis cinerea R16", "test": "Fungal growth inhibitory assay", "assay_type": "cell-based", "details": "half strength PDB, 10^4 spores/mL, 48 hours, determined microscopically, n ≥ 3; read-out: IC50 (growth inhibition)"}, "[23]": {"system": "Saccharomyces cerevisiae BY4741 ∆kch1", "test": "Yeast growth inhibitory assay", "assay_type": "cell-based", "details": "BY4741 ∆kch1, MM medium, 24 hours, OD490nm, mean ± SEM, n ≥ 3; read-out: IC50 (growth inhibition)"}, "[24]": {"system": "Saccharomyces cerevisiae BY4741 ∆ppz1", "test": "Yeast growth inhibitory assay", "assay_type": "cell-based", "details": "BY4741 ∆ppz1, MM medium, 24 hours, OD490nm, mean ± SEM, n ≥ 3; read-out: IC50 (growth inhibition)"}, "[25]": {"system": "insect channel DmNav1", "test": "Two-electrode voltage-clamp on DmNav1 expressed in X. laevis oocytes", "assay_type": "cell-based", "details": "5 μM, n ≥ 4"}, "[26]": {"system": "Kv1.6 channels", "test": "Two-electrode voltage-clamp on Kv1.6 expressed in X. laevis oocytes", "details": "n ≥ 3", "experimental": "as §1\nTwo-electrode voltage-clamp recordings were performed at room temperature (18–22 °C) using a Geneclamp 500 amplifier (Molecular Devices, USA) controlled by a pClamp data acquisition system (Axon Instruments, USA). Whole cell currents from oocytes were recorded 1–4 days after injection. Bath solution composition was ND96 (in mM): NaCl, 96; KCl, 2; CaCl2, 1.8; MgCl2, 2 and HEPES, 5 (pH 7.4) or HK (in mM): NaCl, 2; KCl, 96; CaCl2, 1.8; MgCl2, 2 and HEPES, 5 (pH 7.4). Voltage and current electrodes were filled with 3 M KCl. Resistances of both electrodes were kept between 0.7 and 1.5 MΩ. The elicited currents were filtered at 0.5 kHz and sampled at 2 kHz (for potassium currents) or filtered at 2 kHz and sampled at 20 kHz (for sodium currents) using a four-pole low-pass Bessel filter. Leak subtraction was performed using a -P/4 protocol. Kv1.1–Kv1.6 and Shaker currents were evoked by 250 ms depolarizations to 0 mV followed by a 250 ms pulse to −50 mV, from a holding potential of −90 mV. Current traces of hERG channels were elicited by applying a +40 mV prepulse for 2 s followed by a step to −120 mV for 2 s. […] In order to investigate the current–voltage relationship, current traces were evoked by 10 mV depolarization steps from a holding potential of −90 mV. To assess the concentration dependency of the toxin induced inhibitory effects, a concentration–response curve was constructed, in which the percentage of current inhibition was plotted as a function of toxin concentration. Data were fitted with the Hill equation: y = 100/[1 + (IC50/[toxin])^h], were y is the amplitude of the toxin-induced effect, IC50 is the toxin concentration at half-maximal efficacy, [toxin] is the toxin concentration, and h is the Hill coefficient. GV curves were calculated from IV relationships as follows: gK = IK/(Em−EK) with EK = (RT/zF)ln[K #0]o/[K #0]i. In these equations gK represents the conductance, IK the potassium current, Em the membrane potential, EK the reversal potential, R the gas constant (8.31 J/K mol), T the temperature, z the charge of the ion (for K+ ions: z = 1), F the Faraday’s constant (96.500 C/mol), [K #0]o and [K #0]i respectively are the extracellular and intracellular K+ ion concentrations. The values of IK or gK were plotted as function of voltage and fitted using the Boltzmann equation: gK/gmax = [1 + exp(Vg−V)/k]−1, were gmax represents maximal gK, Vg is the voltage corresponding to half-maximal conductance, and k is the slope factor. Comparison of two sample means was made using a paired Student’s t test (P < 0.05). All data represent at least three independent experiments (n ≥ 3) and are presented as mean ± standard error."}, "[27]": {"system": "Saccharomyces cerevisiae BY4741 ∆ppz2", "test": "Yeast growth inhibitory assay", "assay_type": "cell-based", "details": "BY4741 ∆ppz2, MM medium, 24 hours, OD490nm, mean ± SEM, n ≥ 3; read-out: IC50 (growth inhibition)"}, "[28]": {"system": "hERG (Kv11.1)", "test": "Two-electrode voltage-clamp on hERG expressed in X. laevis oocytes", "details": "3 μM, n ≥ 3", "experimental": "as §1, §2"}, "[29]": {"system": "Saccharomyces cerevisiae BY4741 ∆prm6", "test": "Yeast growth inhibitory assay", "assay_type": "cell-based", "details": "BY4741 ∆prm6, MM medium, 24 hours, OD490nm, mean ± SEM, n ≥ 3; read-out: IC50 (growth inhibition)"}, "[30]": {"system": "Kv1.5", "test": "Two-electrode voltage-clamp on Kv1.5 expressed in X. laevis oocytes", "details": "3 μM, n ≥ 3", "experimental": "as §1, §2"}, "[31]": {"system": "Fusarium graminearum PH-1", "assay_type": "cell-based", "details": "read-out: IC50 (growth inhibition)"}, "[32]": {"system": "plant pathogenic fungi", "test": "Fungal growth inhibitory assay, whole panel", "assay_type": "cell-based", "details": "range over the fungal panel of Table 1, 48 hours; read-out: IC50 values against all plant pathogenic fungi tested (range)"}},
  "note": "Ends that are not written are not given here.",
  "data": [
    {"substance": "rAtPDF2.3: Arabidopsis thaliana plant defensin AtPDF2.3 produced recombinantly in Pichia pastoris (RTCESKSHRFKGPCVSTHNCANVCHNEGFGGGKCRGFRRRCYCTRHC; ends and bridges not checked; cysteine pairing not given here)", "values": [
      {"measurement": "activity on Kv1.3 at single concentration", "setting": "[1]", "result": "no effect"},
      {"measurement": "IC50", "setting": "[2]", "result": "4.4 ± 1.6", "unit": "µM"},
      {"measurement": "IC50", "setting": "[3]", "result": "9.1 ± 0.7", "unit": "µM"},
      {"measurement": "IC50", "setting": "[4]", "result": 1.5, "unit": "µM"},
      {"measurement": "IC50", "setting": "[5]", "result": "4 ± 0.4", "unit": "µM"},
      {"measurement": "IC50", "setting": "[6]", "result": "2.9 ± 0.2", "unit": "µM"},
      {"measurement": "IC50", "setting": "[7]", "result": "5.7 ± 0.2", "unit": "µM"},
      {"measurement": "IC50", "setting": "[8]", "result": 5.8, "unit": "µM"},
      {"measurement": "activity on Nav1.4", "setting": "[9]", "result": "does not show activity"},
      {"measurement": "IC50", "setting": "[10]", "result": "4.4 ± 1.6", "unit": "µM"},
      {"measurement": "IC50", "setting": "[11]", "result": "5.1 ± 0.1", "unit": "µM"},
      {"measurement": "activity on Nav1.2", "setting": "[12]", "result": "does not show activity"},
      {"measurement": "activity on Kv1.4 at single concentration", "setting": "[13]", "result": "no effect"},
      {"measurement": "activity on Kv1.1 at single concentration", "setting": "[14]", "result": "no effect"},
      {"measurement": "activity on Kv4.2 (Shal) at single concentration", "setting": "[15]", "result": "no effect"},
      {"measurement": "IC50", "setting": "[16]", "result": "3.1 ± 0.1", "unit": "µM"},
      {"measurement": "IC50", "setting": "[17]", "result": 3.3, "unit": "µM"},
      {"measurement": "IC50", "setting": "[18]", "result": "7 ± 0.6", "unit": "µM"},
      {"measurement": "activity on Shaker IR at single concentration", "setting": "[19]", "result": "no effect"},
      {"measurement": "IC50", "setting": "[20]", "result": "1 ± 0.4", "unit": "µM"},
      {"measurement": "IC50", "setting": "[21]", "result": "7.1 ± 0.1", "unit": "µM"},
      {"measurement": "IC50", "setting": "[22]", "result": 5.8, "unit": "µM"},
      {"measurement": "IC50", "setting": "[23]", "result": "8.9 ± 0.3", "unit": "µM"},
      {"measurement": "IC50", "setting": "[24]", "result": "10.1 ± 0.5", "unit": "µM"},
      {"measurement": "activity on DmNav1", "setting": "[25]", "result": "does not show activity"},
      {"measurement": "activity on Kv1.6 at single concentration", "setting": "[26]; 3 μM", "result": "can block"},
      {"measurement": "IC50", "setting": "[26]; read-out: IC50 for Kv1.6, two-electrode voltage-clamp, X. laevis oocytes, concentration-response curve fitted with Hill equation, mean ± standard error", "result": "0.978 ± 0.113", "unit": "µM"},
      {"measurement": "IC50", "setting": "[27]", "result": "8.6 ± 0.5", "unit": "µM"},
      {"measurement": "activity on hERG (Kv11.1) at single concentration", "setting": "[28]", "result": "no effect"},
      {"measurement": "IC50", "setting": "[29]", "result": "7.6 ± 0.2", "unit": "µM"},
      {"measurement": "activity on Kv1.5 at single concentration", "setting": "[30]", "result": "no effect"},
      {"measurement": "IC50", "setting": "[31]", "result": 1.4, "unit": "µM"},
      {"measurement": "IC50", "setting": "[32]", "result": "1 to 5.8", "unit": "µM"}
    ]}
  ]
}
